Results on ten compounds are retold here after ChEMBL document CHEMBL1201862, “PubChem BioAssay data set” (2004).

Structures are written as SMILES.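 Compound exposure: 48 hours, 5 concentrations, 96-well plates. GI50: concentration for 50% inhibition of growth.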 Active and inactive are the calls of the source. Cut-off read from the data, not from the text of the source: active = GI50 up to about 1.1 µM and inactive = higher. A value given as a limit tells only on which side of the number the result lay.

Some test systems named below: SW-620; HT-29; UACC-257; Hs-578T; A498; HCT-116; 786-0; MDA-MB-231; SN12C; NCI-H460; LOX IMVI; COLO 205; SNB-75; UO-31; OVCAR-4; SF-295; HOP-62; SK-MEL-28; OVCAR-5; RPMI-8226.
Experiment in all cases: inhibition of tumour cell growth, NCI panel, 48 h

Turning to `COC(=O)c1c(C(=O)OC)c2ccccn2c1-c1cc(OC)c(Br)c(=O)o1`, the GI50 with SW-620 is > 100 µM (inactive); with HT-29, > 100 µM (inactive); with UACC-257 it was > 100 µM (inactive); in the test on Hs-578T, 37.2 µM (inactive); in the test on A498, > 100 µM (inactive); in the test with HCT-116 it was > 100 µM (inactive). Besides, the GI50 is > 100 µM (inactive) in the test on 786-0; 83.8 µM (inactive) in the test on MDA-MB-231; > 100 µM (inactive) in the test on SN12C; > 100 µM (inactive) in the test on NCI-H460; > 100 µM (inactive) in the test with LOX IMVI; > 100 µM (inactive) in the test on COLO 205. Further, the GI50 was 15.1 µM (inactive) with SNB-75; > 100 µM (inactive) in the test on UO-31; > 100 µM (inactive) with OVCAR-4; > 100 µM (inactive) in the test on SF-295; > 100 µM (inactive) in the test with HOP-62; > 100 µM (inactive) in the test with SK-MEL-28. For the same compound, the GI50 in the test on OVCAR-5 and with RPMI-8226 was > 100 µM (inactive) each time.

Regarding `Cc1ccc(C)n1-c1ccccc1C1C=Cn2c(=O)oc3c(OC(C)C)c(OC(C)C)c(O)c1c32` (stereo unspecified), the GI50 in the test on SW-620 was 11.4 µM (inactive); in the test with HT-29, 18.2 µM (inactive); with UACC-257, 17.1 µM (inactive); in the test on Hs-578T it was 56 µM (inactive); in the test with A498, 43.8 µM (inactive); in the test with HCT-116 it was 8.26 µM (inactive). Besides, the GI50 with 786-0 was 37.3 µM (inactive); in the test on MDA-MB-231, 5.13 µM (inactive); in the test with SN12C it was 76.6 µM (inactive); in the test on NCI-H460, 22.3 µM (inactive); in the test with LOX IMVI, 14.2 µM (inactive); in the test on COLO 205 it was 13.9 µM (inactive). Further, the GI50 in the test with SNB-75 is 28.1 µM (inactive); in the test on UO-31 it was 12.7 µM (inactive); in the test with OVCAR-4, 32.6 µM (inactive); with SF-295, 33.3 µM (inactive); in the test on HOP-62 it was 73.5 µM (inactive); in the test on SK-MEL-28, 28.6 µM (inactive). Further, the GI50 in the test with OVCAR-5 is > 100 µM (inactive); in the test on RPMI-8226 it was 4.9 µM (inactive).

With `Cc1ccc(S(=O)(=O)N/C(=C\C=C\c2ccccc2)C(=O)C(C)(C)C)cc1`, the GI50 was > 100 µM (inactive) in the test with SW-620; > 100 µM (inactive) with HT-29; 45.5 µM (inactive) in the test with UACC-257; 35.1 µM (inactive) in the test on Hs-578T; 89.5 µM (inactive) in the test with A498; > 100 µM (inactive) in the test on HCT-116. Moreover, the GI50 was 27.5 µM (inactive) with 786-0; 29.9 µM (inactive) in the test with MDA-MB-231; > 100 µM (inactive) in the test with SN12C; > 100 µM (inactive) in the test on NCI-H460; > 100 µM (inactive) in the test on LOX IMVI; > 100 µM (inactive) in the test on COLO 205. The GI50 was 56.2 µM (inactive) with SNB-75; > 100 µM (inactive) with UO-31; 35.2 µM (inactive) in the test with OVCAR-4; 75 µM (inactive) in the test with SF-295; 19.5 µM (inactive) with HOP-62; > 100 µM (inactive) with SK-MEL-28. Besides, the GI50 in the test on OVCAR-5 is > 100 µM (inactive); in the test on RPMI-8226, 0.492 µM (active).

As for `CSC(Cc1ccc2c(c1)Sc1ccccc1O2)=[N+]1CCOCC1`, the GI50 is > 100 µM (inactive) with SW-620; 43.9 µM (inactive) in the test with HT-29; 43 µM (inactive) in the test with UACC-257; 30.7 µM (inactive) in the test on Hs-578T; 46.5 µM (inactive) in the test with A498; 41.4 µM (inactive) in the test on HCT-116. Also, the GI50 in the test on 786-0 was 88.9 µM (inactive); in the test on MDA-MB-231, > 100 µM (inactive); in the test on SN12C it was > 100 µM (inactive); in the test on NCI-H460 it was 48.2 µM (inactive); in the test with LOX IMVI, 80.4 µM (inactive); with COLO 205 it was > 100 µM (inactive). Also, the GI50 in the test with SNB-75 is 32.4 µM (inactive); in the test on UO-31 it was 36.8 µM (inactive); with OVCAR-4 it was > 100 µM (inactive); in the test on SF-295, 44.5 µM (inactive); with HOP-62 it was > 100 µM (inactive); in the test with SK-MEL-28 it was 80.7 µM (inactive). Besides, the GI50 in the test with OVCAR-5 is > 100 µM (inactive); in the test on RPMI-8226 it was 49.8 µM (inactive).

`O=C(O)c1cc(O)nc(S)n1`: the GI50 with SW-620, with HT-29, in the test on UACC-257, with Hs-578T, with A498 and in the test on HCT-116 was > 100 µM (inactive) each time. In addition, the GI50 with 786-0, with MDA-MB-231, in the test with SN12C, with NCI-H460, in the test with LOX IMVI and in the test on COLO 205 was > 100 µM (inactive) each time. For the same compound, the GI50 in the test with SNB-75 is 94.2 µM (inactive); with UO-31, > 100 µM (inactive); with OVCAR-4, > 100 µM (inactive); in the test with SF-295, > 100 µM (inactive); with HOP-62, > 100 µM (inactive); with SK-MEL-28, > 100 µM (inactive). For the same compound, the GI50 with OVCAR-5 and in the test on RPMI-8226 was > 100 µM (inactive) throughout.

For the compound `O=C(OC12CC3CC(CC(C3)C1)C2)c1ccc(NCc2cc(O)ccc2O)cc1`, the GI50 in the test on SW-620 is 1.67 µM (inactive); in the test on HT-29, 1.48 µM (inactive); with UACC-257, 1.24 µM (inactive); with Hs-578T, 0.982 µM (active); in the test with A498, 1.87 µM (inactive); with HCT-116, 1.17 µM (inactive). The GI50 in the test on 786-0 was 1.15 µM (inactive); in the test on MDA-MB-231, 1.98 µM (inactive); in the test with SN12C, 1.42 µM (inactive); in the test with NCI-H460, 2.53 µM (inactive); with LOX IMVI, 0.859 µM (active); with COLO 205, 0.285 µM (active). The GI50 with SNB-75 is 0.607 µM (active); in the test on UO-31 it was 0.417 µM (active); with OVCAR-4, 0.433 µM (active); in the test on SF-295 it was 2.29 µM (inactive); with HOP-62, 4.52 µM (inactive); with SK-MEL-28, 0.489 µM (active). Besides, the figures for the GI50 with OVCAR-5 and in the test with RPMI-8226 were 1.73 µM (inactive) and 0.0966 µM (active), respectively.

For `CCN(CC)CCCC(C)Nc1c2ccc(Cl)cc2nc2ccc(OC)cc12` (stereo unspecified), the GI50 in the test on SW-620 was 0.637 µM (active); with HT-29, 1.03 µM (active); in the test on UACC-257 it was 1.85 µM (inactive); in the test on Hs-578T it was 3.37 µM (inactive); in the test with A498 it was 2.48 µM (inactive); in the test with HCT-116, 0.61 µM (active). The GI50 in the test with 786-0 was 0.993 µM (active); in the test on MDA-MB-231 it was 10.1 µM (inactive); in the test on SN12C, 2.32 µM (inactive); in the test on NCI-H460, 0.673 µM (active); with LOX IMVI, 1.07 µM (active); with COLO 205, 1.24 µM (inactive). Besides, the GI50 is 1.47 µM (inactive) in the test with SNB-75; 2.08 µM (inactive) with UO-31; 1.65 µM (inactive) with OVCAR-4; 0.729 µM (active) in the test on SF-295; 2.22 µM (inactive) in the test on HOP-62; 1.61 µM (inactive) with SK-MEL-28. Also, the GI50 in the test on OVCAR-5 is 2 µM (inactive); in the test with RPMI-8226, 2.05 µM (inactive).

For `CCC(c1ccc(N(C)C)cc1)C1NC(=S)NC1=O` (stereo unspecified), the GI50 was 68.9 µM (inactive) in the test on SW-620; 57.1 µM (inactive) in the test on HT-29; > 100 µM (inactive) in the test on UACC-257; > 100 µM (inactive) in the test with Hs-578T; 50.6 µM (inactive) in the test on A498; 47 µM (inactive) in the test on HCT-116. Also, the GI50 with 786-0 was > 100 µM (inactive); in the test on MDA-MB-231, > 100 µM (inactive); with SN12C, > 100 µM (inactive); in the test on NCI-H460, > 100 µM (inactive); with LOX IMVI it was 97.9 µM (inactive); in the test on COLO 205, 98.2 µM (inactive). For the same compound, the GI50 is 85.9 µM (inactive) in the test with SNB-75; 96.8 µM (inactive) with UO-31; 62.7 µM (inactive) with OVCAR-4; 67.9 µM (inactive) in the test with SF-295; > 100 µM (inactive) in the test with SK-MEL-28; > 100 µM (inactive) in the test with OVCAR-5. Besides, in the test with RPMI-8226, the GI50 was 46 µM (inactive).

As to `CC(C)[Si](OC1=CCCCCC12C(=O)N(C)c1ccccc12)(C(C)C)C(C)C` (stereo unspecified), the GI50 in the test on SW-620 is 17.3 µM (inactive); in the test on HT-29, 20.5 µM (inactive); in the test on UACC-257, 14.9 µM (inactive); with Hs-578T it was 21.6 µM (inactive); with A498 it was 15.8 µM (inactive); in the test with 786-0, 17.7 µM (inactive). Besides, the GI50 in the test with MDA-MB-231 was 22.4 µM (inactive); in the test on NCI-H460, 17.6 µM (inactive); with LOX IMVI, 19.5 µM (inactive); in the test on COLO 205, 18.9 µM (inactive); in the test with SNB-75 it was 13.5 µM (inactive); with UO-31 it was 21.3 µM (inactive). Moreover, the GI50 in the test on OVCAR-4 was 24.7 µM (inactive); with SF-295, 13.5 µM (inactive); in the test with HOP-62, 21.6 µM (inactive); with SK-MEL-28 it was 23.6 µM (inactive); with OVCAR-5, 16.9 µM (inactive); in the test with RPMI-8226, 15.1 µM (inactive).

For the compound `Cc1cccc2c1c(=O)c1c(O)c3c(cc1n2C)OC(C)(C)C=C3`, the GI50 in the test with SW-620 was > 10 µM (inactive); in the test on HT-29, 3.59 µM (inactive); in the test on UACC-257, > 10 µM (inactive); with Hs-578T it was > 10 µM (inactive); in the test with A498, > 10 µM (inactive); in the test on HCT-116 it was > 10 µM (inactive). Besides, the GI50 with 786-0, with MDA-MB-231, with SN12C, in the test on NCI-H460, in the test with LOX IMVI and with COLO 205 was > 10 µM (inactive) throughout. For the same compound, the GI50 in the test with SNB-75, in the test on OVCAR-4, with SF-295, with HOP-62, with SK-MEL-28 and in the test with OVCAR-5 was > 10 µM (inactive) in each case. Besides, the GI50 with RPMI-8226 was > 10 µM (inactive).
